Laboratory results: patent US8048455B2, “Treatment of cancer and inflammatory disorder” (Academia Sinica, priority 2006, dated 2011)

Assays:
[1] = system: COX-2 and nitrotyrosine-containing proteins; assay: Immunohistochemical study of COX-2 and nitrotyrosine protein expression in mouse skin; assay type: in vivo, Female ICR mice
Protocol: Female ICR mice were topically treated on their shaven backs with vehicle (acetone), TPA, or SNP for 4 hours, or were treated with compound (dLGG, celecoxib, or PTIO) topically for 30 minutes before treating with TPA or SNP for 4 hours and finally killed by cervical dislocation. The formalin-fixed, paraffin-embedded skin tissues were stained according to Chiang et al. Br J Pharmacol 2005; 146:352-63.
Immunohistochemical study was carried out to examine the ability of dLGG to inhibit TPA induction of COX-2 and nitration of proteins in vivo using immunohistochemical analysis in a mouse skin system. Dorsal skin of female ICR mice was treated topically with acetone (vehicle control) or TPA (10 nmol) for 4 hours or with various concentrations of dLGG or celecoxib for 30 minutes before TPA treatment for 4 hours. Immunohistograms were taken with an Olympus DP-70 camera on a Nikon ECLIPSE E800 microscope.

[2] = system: LPS binding to LPS receptors on macrophages; assay: Binding of FITC-labeled LPS to macrophages; assay type: cell-based, murine
NO = assay: Plasma nitrite concentration in SNP-treated mice; assay type: in vivo, Female ICR mice; details: topical pretreatment 30 min before SNP; dLGG 10 mg/site, PTIO 3.5 mg/site
Protocol: Female ICR mice were topically treated on their shaven back area of a 2-cm diameter (3.14 cm^2/site/mouse) with vehicle control (acetone), SNP (positive control), or with dLGG or PTIO for 30 minutes before SNP application. Mouse plasma samples were subjected to determine the nitrite content followed a published method (Moshage et al. Clin Chem 1995; 41:892-6).
To examine the capability of dLGG to scavenge NO in vivo, the plasma NO concentration in SNP-insulted mice was determined with or without pretreatment with dLGG. Female ICR mice were transdermally treated with 200 μL acetone (vehicle control) or SNP (5.96 mg/site) only for 15 minutes, or pre-treated with dLGG (10 mg/site) or PTIO (3.5 mg/site) for 30 minutes before SNP treatment.

COX-2 enzyme = target: T1, COX-2 enzyme (Ovis aries, UniProt P79208); assay: Cyclooxygenase-2 activity assay (chemiluminescent COX inhibitor screening kit); assay type: biochemical; details: COX-2 enzyme and substrates
T1 construct: purchased Cayman Chemical
T1 sequence (P79208 17-603): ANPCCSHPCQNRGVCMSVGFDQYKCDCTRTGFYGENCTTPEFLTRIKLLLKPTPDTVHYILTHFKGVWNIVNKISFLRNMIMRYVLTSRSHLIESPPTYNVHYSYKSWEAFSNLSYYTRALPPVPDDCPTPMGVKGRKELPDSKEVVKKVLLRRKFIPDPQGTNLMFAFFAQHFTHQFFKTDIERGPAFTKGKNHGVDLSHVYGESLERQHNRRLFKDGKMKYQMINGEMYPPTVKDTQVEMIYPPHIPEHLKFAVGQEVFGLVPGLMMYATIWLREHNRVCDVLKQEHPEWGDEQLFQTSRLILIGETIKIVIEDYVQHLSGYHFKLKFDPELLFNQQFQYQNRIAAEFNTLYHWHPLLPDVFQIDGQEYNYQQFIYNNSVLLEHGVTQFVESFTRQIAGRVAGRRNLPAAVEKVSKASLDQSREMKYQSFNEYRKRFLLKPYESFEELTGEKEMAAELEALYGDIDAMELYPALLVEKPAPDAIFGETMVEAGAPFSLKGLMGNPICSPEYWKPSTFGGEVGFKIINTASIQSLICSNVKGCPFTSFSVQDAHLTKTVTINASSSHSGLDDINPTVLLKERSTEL
Protocol: COX-2 inhibition was measured with the chemiluminescent COX inhibitor screening assay kit (Cayman Chemical, Ann Arbor, Mich.).
The above-mentioned test compounds were incubated with COX-2 enzyme and substrates before measuring the COX-2 activity.

COX-2 protein = COX-2 protein expression (immunoblotting) in LPS-stimulated macrophages; assay type: cell-based, murine; details: LPS 18 h
Protocol: Total cellular proteins and the specific cytosolic and nuclear proteins were prepared using methods described in Chiang et al. Protein content was measured by the Bradford method (Bio-Rad). Protein was resolved by 5-20% gradient SDS-PAGE and subjected to immunoblotting using enhanced chemiluminescence reagents (ECL, Amersham). Monoclonal antibodies against PARP (Transduction Laboratories, Lexington, Ky.), GA3PDH (Biogenesis, Poole, UK), α-tubulin (Oncogene Science, Cambridge, UK), COX-2 (Cayman Chemical), phospho-(Ser32)-IκBα, phospho-IKKα(Ser180)/IKKβ(Ser181) (New England Biolabs, Beverly, Mass.), iNOS, IκBα, IKKα/β or NF-κB p65 (RelA) (Santa Cruz Biotechnology, Santa Cruz, Calif.) were used.
It was further examined whether dLGG affects COX-2 mRNA and protein expression using RT-PCR and immunoblotting. Cells were treated with dLGG for 1 hour, then LPS (1 μg/mL) was added for 18 hours. Total cellular protein (20 μg) was subjected to immunoblotting. Quantification of COX-2 mRNA and protein expression involved normalization to GA3PDH by densitometry.

NF-κB•DNA complex = assay: Electrophoretic mobility shift assay of NF-κB binding to consensus DNA in LPS-stimulated RAW 264.7 cells; assay type: cell-based, murine; details: for NF-κB•DNA complex, of LPS alone: 90 minutes; for NF-κB•DNA complex level: 75 μg/mL
Protocol: EMSA was performed with the […]™ Chemiluminescent EMSA kit (Pierce Biotechnology, Rockford, Ill.). […] The DNA-protein complexes were subjected to 5-10% gradient PAGE. Competition assay with unlabeled oligonucleotide (cold DNA) was performed in parallel. […]

## CC/C=C\C/C=C\C/C=C\CCCCCCCC(=O)OC[C@H](CO[C@@H]1O[C@H](CO)[C@H](O)[C@H](O)[C@H]1O)OC(=O)CCCCCCC/C=C\C/C=C\C/C=C\CC [dLGG, 1,2-di-O-α-linolenoyl-3-O-β-galactopyranosyl-sn-glycerol]
[1]; 1 mg in 200 μL/site (6.46 mM)
  Inhibitory effect on COX-2 protein expression and nitrotyrosine-containing proteins versus celecoxib 10 mg in 200 μL/site: comparable to that of celecoxib
[1]; topical 30 min before TPA 10 nmol 4 h
  TPA-induced increases of COX-2 and nitrotyrosine-containing proteins in epidermis: significantly attenuated
[1]; topical, SNP-treated
  Topical SNP-induced nitroprotein formation in mouse skin: suppressed
[2]
  Binding of FITC-labeled LPS to the test macrophages: dose-dependently suppress
NO
  SNP-induced increase of nitrite plasma concentration: suppressed
COX-2 enzyme
  IC50: 5.35 µM
COX-2 protein; 50 μg/mL
  Suppression of LPS-induced COX-2 protein synthesis: approximately 60%
COX-2 protein; 75 μg/mL
  COX-2 protein level: barely detectable
NF-κB•DNA complex; 25 μg/mL
  NF-κB•DNA complex, of LPS alone: 77%
NF-κB•DNA complex; 50 μg/mL
  NF-κB•DNA complex, of LPS alone: 23%
NF-κB•DNA complex; LPS 60 min
  NF-κB•DNA complex level: 0.43 times that of LPS alone (1.0)
NF-κB•DNA complex; LPS 90 min
  NF-κB•DNA complex level: 0.30 times that of LPS alone (1.0)
NF-κB•DNA complex; LPS 120 min
  NF-κB•DNA complex level: 0.16 times that of LPS alone (1.0)
NF-κB•DNA complex; LPS 180 min
  NF-κB•DNA complex level: 0.01 times that of LPS alone (1.0)
NF-κB•DNA complex; 100 μM, LPS 1 μg/mL, 90 min
  Inhibition of NF-κB•DNA complex formation (structure-activity study): almost completely inhibited
